Series [1] has as its target T1, human protein extracts (Mixed: HEK-293/ K-562/ Placenta/ Hep G2) (Homo sapiens, UniProt P08240).
T1 construct: endogenous in cells; host or cells: mixture of HEK-293, K-562, Hep G2 and placenta
The series is described as follows: Chemoproteomic profiling, MS/MS data for all quantified proteins (Table S1 E3). It is filed as binding. As for the experimental part: (§1) Human extracts were prepared as described ([Bantscheff et al., 2011]). Briefly, frozen cell pellets were homogenized in lysis buffer (50 mM Tris-HCl, 0.8% Igepal-CA630, 5% glycerol, 150 mM NaCl, 1.5 mM MgCl2, 25 mM sodium fluoride, 1 mM sodium vanadate, 1 mM DTT, pH 7.5). One cOmplete EDTA-free protease inhibitor tablet (Roche) was added per 25 ml. Samples were dispersed using a Dounce homogenizer, rotated for 30 min at 4°C, and centrifuged at 20,000g for 10 min at 4°C. Supernatants were then recentrifuged at 145,000g for 1 h at 4°C. Protein concentrations were determined using a Bradford assay (BioRad). Aliquots were snap frozen in liquid nitrogen and stored at −80°C.
(§2) Kinobeads were prepared by immobilizing Bis-(III) indolyl-maleimide, purvalanol B, staurosporine and CZC8004, and the analogs of PD173955, sunitinib and vandetanib on NHS-activated Sepharose 4 beads (Amersham) ([Bantscheff et al., 2007]). […] The chemoproteomic affinity-capturing experiments were performed as previously described ([Bantscheff et al., 2011]). Briefly, beads were washed and equilibrated in lysis buffer (50 mM Tris-HCl, pH 7.4, 0.4 % Igepal-CA630, 1.5 mM MgCl2, 5 % Glycerol, 150 mM NaCl, 25 mM NaF, 1 mM Na3VO4, 1 mM DTT, and one cOmplete EDTA-free protease inhibitor tablet (Roche) per 25 mL). […] 10 samples were measured in parallel (TMT 10-plex ([Werner et al., 2014])) to generate values for the affinity of the beads to the bound proteins (“depletion” values, 4 samples) and to generate IC50 values (6 samples) in a single experiment. Apparent dissociation constants were determined after accounting for protein depletion by the beads ([Bantscheff et al., 2011]). […]
(§3) Proteins were digested according to a modified single pot solid-phase sample preparation (SP3) protocol ([Hughes et al., 2014]). Peptides were labeled with isobaric mass tags (Thermo Fisher Scientific, Waltham, MA) using 10-plex TMT reagents, enabling relative quantification of 10 conditions in a single experiment ([Werner et al., 2014]). […]

Series [2] addresses T2, human protein extracts (Mixed: HEK-293/ K-562/ Placenta/ Hep G2) (Homo sapiens, UniProt P21127).
T2 construct: endogenous in cells; host or cells: mixture of HEK-293, K-562, Hep G2 and placenta
The series is described as above. The format is binding. Here is the method:
as §1, §2, §3

The target of series [3] is T3, human protein extracts (Mixed: HEK-293/ K-562/ Placenta/ Hep G2) (Homo sapiens, UniProt Q7L576).
T3 construct: endogenous in cells; host or cells: mixture of HEK-293, K-562, Hep G2 and placenta
T3 sequence (Q7L576 whole entry): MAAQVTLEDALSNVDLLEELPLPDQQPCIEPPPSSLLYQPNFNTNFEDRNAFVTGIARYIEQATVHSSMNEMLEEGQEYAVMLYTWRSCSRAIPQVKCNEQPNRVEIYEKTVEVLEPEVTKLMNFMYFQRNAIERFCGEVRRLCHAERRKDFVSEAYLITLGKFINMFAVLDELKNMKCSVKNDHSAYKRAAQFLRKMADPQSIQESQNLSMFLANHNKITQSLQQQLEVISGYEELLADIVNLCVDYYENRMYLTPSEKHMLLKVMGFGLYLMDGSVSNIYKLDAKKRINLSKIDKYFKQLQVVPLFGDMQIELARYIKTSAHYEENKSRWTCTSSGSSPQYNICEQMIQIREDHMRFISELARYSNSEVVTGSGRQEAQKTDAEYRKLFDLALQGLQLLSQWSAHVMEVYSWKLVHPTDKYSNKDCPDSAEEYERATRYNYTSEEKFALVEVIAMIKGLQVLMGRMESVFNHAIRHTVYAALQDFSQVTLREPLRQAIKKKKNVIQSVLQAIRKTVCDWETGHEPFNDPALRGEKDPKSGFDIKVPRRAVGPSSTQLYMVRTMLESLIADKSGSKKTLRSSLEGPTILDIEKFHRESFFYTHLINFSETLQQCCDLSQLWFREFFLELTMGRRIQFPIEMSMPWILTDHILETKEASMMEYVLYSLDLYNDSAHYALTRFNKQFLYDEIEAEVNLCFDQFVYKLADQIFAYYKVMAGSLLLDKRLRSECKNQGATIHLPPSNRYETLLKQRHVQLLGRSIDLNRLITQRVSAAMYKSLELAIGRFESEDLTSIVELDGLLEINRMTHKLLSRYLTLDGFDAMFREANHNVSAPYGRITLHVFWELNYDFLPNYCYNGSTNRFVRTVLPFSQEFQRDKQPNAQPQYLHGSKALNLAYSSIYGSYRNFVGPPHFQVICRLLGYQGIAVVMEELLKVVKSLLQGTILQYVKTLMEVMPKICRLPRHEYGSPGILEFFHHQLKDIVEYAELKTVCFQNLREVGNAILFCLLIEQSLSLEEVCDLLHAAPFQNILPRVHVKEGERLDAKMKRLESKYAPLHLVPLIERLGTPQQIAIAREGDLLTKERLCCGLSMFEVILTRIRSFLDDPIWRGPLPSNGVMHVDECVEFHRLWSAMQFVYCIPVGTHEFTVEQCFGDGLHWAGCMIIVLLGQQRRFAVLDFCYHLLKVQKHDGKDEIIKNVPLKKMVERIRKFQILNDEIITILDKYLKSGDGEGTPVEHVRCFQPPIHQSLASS
Described as above. It is filed as binding. As for the experimental part:
as §1, §2, §3

The test system of series [4] is recombinant TKL3 kinase domain. The experiment in a line: Radioactive in vitro kinase assay with recombinant TKL3 kinase domain. The format is biochemical, Plasmodium falciparum. The settings on record: 20 μM compound. Here is the method:
Recombinant proteins were expressed in E. coli as previously described ([Abdi et al., 2010]). […] The cultures were then cooled to 20°C followed by induction of protein expression with 0.5 mM IPTG and further incubation at 20°C, 200 rpm for 16 h. Cultures were harvested by centrifugation at 4000g, 4°C for 10 min. Bacterial pellets were washed once in 1× PBS and were stored at −80°C. Cell pellets were resuspended in ice-cold Lysis Buffer (50 mM sodium phosphate, pH 8.0, 400 mM NaCl, 5 % (w/v) glycerol, 0.1 % (v/v) Triton X-100, 20 mM imidazole, 2 mM β-mercaptoethanol, 1× Roche protease inhibitor cocktail EDTA-free, 1 mg/ml lysozyme). Cells were disrupted by sonication. Protein was bound on a HisTrap HP column and eluted with a linear gradient of increasing imidazole concentrations. The peak fractions as determined by A280 trace were pooled together and further purified by size exclusion chromatography on a S200 gel filtration column equilibrated in 25 mM Tris pH 7.5, 100 mM NaCl, 5 % (w/v) glycerol, 1 mM DTT. Protein was pooled and concentrated. Final concentration was determined using a Bradford assay with a BSA protein standard.
Kinase assays containing 3 μg of recombinant kinase (WT or mutant) were performed in kinase assay buffer (25 mM Hepes, pH 7.5, 2 mM MnCl2, 10 mM β-glycerophosphate, 10 mM NaF, 25 μM ATP (containing 5 μCi [γ-^32P]-ATP-3000 mCi/mmol (PerkinElmer)), 5 μg substrate myelin basic protein (MBP) and ± 20 μM inhibitor) in a final reaction volume of 20 μl and incubated at 30°C for 30 min. Reactions were stopped by the addition of 5× Laemmli sample buffer and heated to 98°C for 5 min. Proteins were resolved by 4-12 % SDS-PAGE and stained in Coomassie Brilliant Blue. Kinase activity was detected by phosphorimaging. Imaging was performed on a Typhoon 5 Biomolecular imager (GE Healthcare Life Sciences).

A further series can be described thus: in vitro. As to conditions: human.

T2 sequence (P21127 whole entry): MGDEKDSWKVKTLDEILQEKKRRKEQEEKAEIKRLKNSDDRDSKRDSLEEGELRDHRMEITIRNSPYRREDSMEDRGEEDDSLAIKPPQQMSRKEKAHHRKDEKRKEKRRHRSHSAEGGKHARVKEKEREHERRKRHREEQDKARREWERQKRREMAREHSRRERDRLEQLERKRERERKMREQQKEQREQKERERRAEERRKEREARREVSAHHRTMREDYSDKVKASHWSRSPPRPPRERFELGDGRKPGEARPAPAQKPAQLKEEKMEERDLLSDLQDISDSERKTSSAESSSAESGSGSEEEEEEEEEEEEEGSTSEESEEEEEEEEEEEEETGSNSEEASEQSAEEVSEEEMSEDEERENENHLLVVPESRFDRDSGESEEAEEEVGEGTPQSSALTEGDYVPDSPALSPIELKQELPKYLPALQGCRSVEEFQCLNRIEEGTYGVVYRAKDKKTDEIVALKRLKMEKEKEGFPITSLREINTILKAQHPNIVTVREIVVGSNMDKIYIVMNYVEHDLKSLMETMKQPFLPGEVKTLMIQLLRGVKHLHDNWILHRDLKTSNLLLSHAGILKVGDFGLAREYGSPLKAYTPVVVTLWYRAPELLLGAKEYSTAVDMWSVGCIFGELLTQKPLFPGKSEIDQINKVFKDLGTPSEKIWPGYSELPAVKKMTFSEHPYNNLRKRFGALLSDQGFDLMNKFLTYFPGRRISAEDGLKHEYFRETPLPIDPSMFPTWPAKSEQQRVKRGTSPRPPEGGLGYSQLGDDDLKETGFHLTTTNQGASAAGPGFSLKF
T1 sequence (P08240 whole entry): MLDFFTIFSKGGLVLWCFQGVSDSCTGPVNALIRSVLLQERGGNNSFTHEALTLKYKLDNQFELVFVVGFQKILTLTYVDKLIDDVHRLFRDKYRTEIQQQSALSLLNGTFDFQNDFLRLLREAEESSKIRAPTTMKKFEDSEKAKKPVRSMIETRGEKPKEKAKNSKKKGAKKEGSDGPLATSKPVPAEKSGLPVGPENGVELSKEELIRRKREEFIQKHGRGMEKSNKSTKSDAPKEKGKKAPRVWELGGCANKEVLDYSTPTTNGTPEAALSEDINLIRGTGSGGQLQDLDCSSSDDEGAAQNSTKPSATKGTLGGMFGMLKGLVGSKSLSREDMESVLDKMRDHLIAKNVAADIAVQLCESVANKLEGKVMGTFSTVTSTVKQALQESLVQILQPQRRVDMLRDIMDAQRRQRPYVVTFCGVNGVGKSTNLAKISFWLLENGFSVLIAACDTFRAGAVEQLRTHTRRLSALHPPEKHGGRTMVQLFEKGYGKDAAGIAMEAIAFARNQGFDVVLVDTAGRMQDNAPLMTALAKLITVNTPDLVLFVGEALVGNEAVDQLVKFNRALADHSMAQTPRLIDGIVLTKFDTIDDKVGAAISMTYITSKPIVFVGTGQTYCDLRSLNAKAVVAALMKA

Usually IC50 stands for the concentration that inhibits the measured activity by half. Higher therefore signals weaker potency. With `CC(C)(CN)c1nc(-c2ccc(Cl)c(O)c2)c(-c2ccncc2)[nH]1` [MMV030084], the concentration for half-maximal inhibition (IC50) in series [1], in series [2] and in series [3] was ≥ 30 µM in each case. The “Reduction in TKL3 kinase activity” value in series [4] was “no reduction”. In “in vitro”, this compound yielded a CC50 of 41.5 µM.

The values above are taken from PMC7369637, “Inhibition of Resistance-Refractory P. falciparum Kinase PKG Delivers Prophylactic, Blood Stage, and Transmission-Blocking Antiplasmodial Activity” (Cell Chemical Biology, 2020).
